Laboratory results reported in article PMC3545233 (Scientific Reports, 2013).
Where two headings read alike, the source gives them in different places.

How the values were obtained:
[1] = target: T1, recombinant agAP-AChE (Anopheles gambiae, UniProt Q869C3); assay: biochemical; set-up: species or system Anopheles gambiae sensu stricto
[2] = target: T1, recombinant agAP-AChE; assay: Time-course and dilution experiments of AChE inhibition; type: biochemical, Anopheles gambiae sensu stricto; conditions: for inhibition at 50 µM: read-out: inhibition of the enzyme activity, agAP-AChE, 50 μM NEM
[3] = target: recombinant hAChE (Homo sapiens, UniProt P22303); assay: as above; type: biochemical
[4] = target: T1, recombinant agAP-AChE; type: biochemical, Anopheles gambiae sensu stricto; conditions: ≤15 min, paraoxon 333–2000 nM

recombinant hAChE, sequence (P22303 32-614): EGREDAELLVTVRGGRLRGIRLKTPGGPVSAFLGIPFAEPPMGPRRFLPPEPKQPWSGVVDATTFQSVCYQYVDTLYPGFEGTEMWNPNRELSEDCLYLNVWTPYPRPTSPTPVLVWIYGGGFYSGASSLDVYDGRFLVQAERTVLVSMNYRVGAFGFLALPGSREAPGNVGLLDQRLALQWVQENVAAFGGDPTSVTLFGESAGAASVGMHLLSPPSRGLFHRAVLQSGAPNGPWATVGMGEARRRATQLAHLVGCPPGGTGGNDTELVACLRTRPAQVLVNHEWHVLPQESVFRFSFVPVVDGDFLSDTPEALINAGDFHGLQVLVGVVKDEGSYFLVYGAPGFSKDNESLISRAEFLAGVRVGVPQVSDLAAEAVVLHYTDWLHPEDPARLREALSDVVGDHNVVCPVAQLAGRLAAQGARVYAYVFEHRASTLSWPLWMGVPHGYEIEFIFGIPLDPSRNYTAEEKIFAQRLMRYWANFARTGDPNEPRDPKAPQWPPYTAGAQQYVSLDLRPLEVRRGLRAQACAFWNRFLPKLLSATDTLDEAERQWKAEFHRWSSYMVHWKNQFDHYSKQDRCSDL
T1 sequence (Q869C3 39-737): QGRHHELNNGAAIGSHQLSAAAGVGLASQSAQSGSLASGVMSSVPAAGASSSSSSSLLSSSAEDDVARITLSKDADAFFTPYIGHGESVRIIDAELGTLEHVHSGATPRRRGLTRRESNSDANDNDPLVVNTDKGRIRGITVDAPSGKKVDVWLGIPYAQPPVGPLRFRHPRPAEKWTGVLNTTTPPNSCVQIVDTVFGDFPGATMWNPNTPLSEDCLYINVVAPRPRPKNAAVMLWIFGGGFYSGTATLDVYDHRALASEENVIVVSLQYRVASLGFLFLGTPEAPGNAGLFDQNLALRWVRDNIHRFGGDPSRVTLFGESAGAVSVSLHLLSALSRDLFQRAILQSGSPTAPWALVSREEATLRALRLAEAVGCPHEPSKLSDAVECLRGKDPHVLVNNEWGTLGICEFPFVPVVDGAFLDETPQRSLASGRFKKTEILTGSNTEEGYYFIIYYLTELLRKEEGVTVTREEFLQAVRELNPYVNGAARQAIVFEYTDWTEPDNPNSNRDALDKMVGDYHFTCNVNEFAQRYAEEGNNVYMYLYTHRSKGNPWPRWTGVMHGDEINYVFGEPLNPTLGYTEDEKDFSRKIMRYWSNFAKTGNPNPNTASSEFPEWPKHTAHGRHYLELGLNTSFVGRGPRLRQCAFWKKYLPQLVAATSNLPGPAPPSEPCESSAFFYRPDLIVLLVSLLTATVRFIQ

Row | Structure (SMILES) | Ki [1] | irreversible inhibition (time-course and dilution experiments) ([2]; agAP-AChE) | irreversible inhibition (time-course and dilution experiments) [3] | other results
1 | O=C([O-])C(F)(F)F.O=C1CCC(=O)N1CCCCCCCCCCCCCCCCCCCC[n+]1ccccc1 [PMS20, 1-(20-(2,5-Dioxopyrrolidin-1-yl)eicosyl)pyridin-1-ium 2,2,2-trifluoroacetate] | 420 nM | irreversibly inhibited neither | irreversibly inhibited neither | 
2 | Cl.O=C1CCC(=O)N1CCCCCCCCCCCCCCCCCCN1CCCCC1 [PYS18, 1-(18-(Piperidin-1-yl)octadecyl)pyrrolidine-2,5-dione hydrochloride] | 26200 nM | irreversibly inhibited neither | irreversibly inhibited neither | 
3 | O=C1C=CC(=O)N1CCCCCCCCCCCCCCCCCCCC[n+]1ccccc1.[Br-] [PM20, 1-(20-(2,5-Dioxo-2,5-dihydro-1H-pyrrol-1-yl)eicosyl)pyridinium bromide] | 400 nM | irreversibly inhibited agAP-AChE | not hAChE | kinact/KI fold higher than that of paraoxon [4]: 239 fold; decrease of the enzyme activity ([2]; agAP-AChE, combination of 50 μM NEM and 6.7 nM PM20 for 30 minutes): 94 ± 3%; inhibition at 0.0067 µM ([2]; read-out: enzyme activity inhibited, agAP-AChE, incubated with 50 μM NEM, then treated with 6.7 nM PM20 for 30 minutes): 96 ± 4%
4 | Cl.O=C1C=CC(=O)N1CCCCCCCCCCCCCCCCCCN1CCCCC1 [PY18, 1-(18-(Piperidin-1-yl)octadecyl)-1H-pyrrole-2,5-dione hydrochloride] |  | irreversibly inhibited agAP-AChE | not hAChE | 
5 | CCN1C(=O)C=CC1=O [NEM, N-ethylmaleimide, reference compound] |  | inability of NEM to irreversibly inhibit agAP-AChE |  | inhibition at 50 µM ([2]; 30 minutes): 40 ± 1%; inhibition at 50 µM ([2]; immediately): 36 ± 2%
6 | CCN1C(=O)CCC1=O [1-ethylpyrrolidine-2,5-dione, reference compound] |  |  |  | irreversible or reversible inhibition ([2]; agAP-AChE, inhibitor concentrations up to 10 mM, data not shown): did not irreversibly or reversibly inhibit; irreversible or reversible inhibition ([3]; inhibitor concentrations up to 10 mM, data not shown): did not irreversibly or reversibly inhibit
7 | CCOP(=O)(OCC)Oc1ccc([N+](=O)[O-])cc1 [Paraoxon, paraoxon, reference compound] |  | irreversibly inhibited both enzymes | irreversibly inhibited both enzymes | 
